Assay results published in publication PMC9180949, “Design, Spectroscopy, and Assessment of Cholinesterase Inhibition and Antimicrobial Activities of Novel Coumarin–Thiadiazole Hybrids” (International Journal of Molecular Sciences, 2022).

Legend:
[1] = molecular target: T1, AChE; acetylcholinesterase (E.C. 3.1.1.7) from Electrophorus electricus (Electrophorus electricus, UniProt O42275); assay: Ellman assay, absorbance at […] nm; format: biochemical; conditions: read-out: AChE / IC50 (μM) ± SD *
T1 construct: commercial enzyme from Sigma-Aldrich, EC 3.1.1.7, purified from electric eel

[2] = molecular target: T2, BuChE; butyrylcholinesterase (EC 3.1.1.8) from equine serum (Equus caballus, UniProt P81908); assay: Ellman assay, absorbance at […] nm; format: biochemical; conditions: read-out: BuChE / IC50 (μM) ± SD *
T2 construct: gene BCHE; commercial enzyme from equine serum, Sigma-Aldrich, EC 3.1.1.8
T2 sequence (P81908 whole entry): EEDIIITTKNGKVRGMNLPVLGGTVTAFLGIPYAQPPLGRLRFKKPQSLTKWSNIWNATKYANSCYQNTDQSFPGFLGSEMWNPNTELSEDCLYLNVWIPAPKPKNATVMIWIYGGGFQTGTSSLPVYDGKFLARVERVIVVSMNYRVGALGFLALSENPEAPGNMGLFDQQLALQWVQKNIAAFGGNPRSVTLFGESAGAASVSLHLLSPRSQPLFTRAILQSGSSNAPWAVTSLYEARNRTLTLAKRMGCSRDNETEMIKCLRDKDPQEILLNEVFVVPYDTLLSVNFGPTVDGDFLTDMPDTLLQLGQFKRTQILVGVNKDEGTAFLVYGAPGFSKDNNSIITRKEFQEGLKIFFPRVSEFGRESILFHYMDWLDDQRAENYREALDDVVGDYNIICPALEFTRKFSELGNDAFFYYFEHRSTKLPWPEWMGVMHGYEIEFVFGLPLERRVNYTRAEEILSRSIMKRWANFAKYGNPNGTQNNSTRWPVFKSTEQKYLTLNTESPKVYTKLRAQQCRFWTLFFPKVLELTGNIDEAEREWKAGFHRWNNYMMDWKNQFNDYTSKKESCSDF

T1 sequence (O42275 24-633): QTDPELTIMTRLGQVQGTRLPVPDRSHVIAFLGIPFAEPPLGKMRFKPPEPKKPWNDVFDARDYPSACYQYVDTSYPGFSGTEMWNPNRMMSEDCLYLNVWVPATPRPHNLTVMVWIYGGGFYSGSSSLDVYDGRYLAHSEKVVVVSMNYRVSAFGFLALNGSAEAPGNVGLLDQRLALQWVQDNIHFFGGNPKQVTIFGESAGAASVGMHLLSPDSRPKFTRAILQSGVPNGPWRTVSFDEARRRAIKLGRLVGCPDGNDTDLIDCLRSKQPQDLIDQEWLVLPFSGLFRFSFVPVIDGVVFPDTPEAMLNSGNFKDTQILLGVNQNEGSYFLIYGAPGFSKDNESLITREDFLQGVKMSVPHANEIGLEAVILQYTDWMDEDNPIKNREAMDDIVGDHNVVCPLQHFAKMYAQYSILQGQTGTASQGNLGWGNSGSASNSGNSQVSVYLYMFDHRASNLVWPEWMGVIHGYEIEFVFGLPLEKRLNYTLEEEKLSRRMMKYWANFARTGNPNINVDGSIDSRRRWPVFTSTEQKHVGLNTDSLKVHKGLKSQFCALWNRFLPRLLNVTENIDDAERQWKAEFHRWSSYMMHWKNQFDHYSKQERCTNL

SMILES | IC50 [1] | IC50 [2]
COc1cc([N+](=O)[O-])cc2cc(-c3nnc(N)s3)c(=O)oc12 [compound 7, coumarin–thiadiazole hybrid 7] | 0.159 ± 0.015 µM | 0.494 ± 0.024 µM
Nc1nnc(-c2cc3ccccc3oc2=O)s1 [compound 8, coumarin–thiadiazole hybrid 8] | 0.199 ± 0.003 µM | 0.392 ± 0.024 µM
COc1cccc2cc(-c3nnc(N)s3)c(=O)oc12 [compound 2, coumarin–thiadiazole hybrid 2] | 0.213 ± 0.009 µM | 0.198 ± 0.039 µM
Nc1nnc(-c2cc3cc([N+](=O)[O-])ccc3oc2=O)s1 [compound 6, coumarin–thiadiazole hybrid 6] | 0.198 ± 0.016 µM | 0.166 ± 0.022 µM
Nc1nnc(-c2cc3cc(O)ccc3oc2=O)s1 [compound 9, coumarin–thiadiazole hybrid 9] | 0.196 ± 0.022 µM | 0.235 ± 0.034 µM
Nc1nnc(-c2cc3ccc(O)c(O)c3oc2=O)s1 [compound 12, coumarin–thiadiazole hybrid 12] | 0.187 ± 0.015 µM | 0.264 ± 0.017 µM
Nc1nnc(-c2cc3cc(Cl)ccc3oc2=O)s1 [compound 4, coumarin–thiadiazole hybrid 4] | 0.211 ± 0.01 µM | 0.205 ± 0.014 µM
Nc1nnc(-c2cc3cc(Br)ccc3oc2=O)s1 [compound 5, coumarin–thiadiazole hybrid 5] | 0.183 ± 0.018 µM | 0.261 ± 0.015 µM
CCN(CC)c1ccc2cc(-c3nnc(N)s3)c(=O)oc2c1 [compound 1, coumarin–thiadiazole hybrid 1] | 0.184 ± 0.011 µM | 0.191 ± 0.024 µM
Nc1nnc(-c2cc3cccc(O)c3oc2=O)s1 [compound 11, coumarin–thiadiazole hybrid 11] | 0.165 ± 0.003 µM | 0.202 ± 0.03 µM
CCOc1cccc2cc(-c3nnc(N)s3)c(=O)oc12 [compound 3, coumarin–thiadiazole hybrid 3] | 0.152 ± 0.003 µM | 0.295 ± 0.024 µM
Nc1nnc(-c2cc3ccc(O)cc3oc2=O)s1 [compound 10, coumarin–thiadiazole hybrid 10] | 0.2 ± 0.012 µM | 0.38 ± 0.01 µM
